In article PMC11134387, “Cancer-Stem-Cell Phenotype-Guided Discovery of a Microbiota-Inspired Synthetic Compound Targeting NPM1 for Leukemia” (JACS Au, 2024):

How the values were obtained:
Assay type in all cases: cell-based
[1] = tested on: primary CD34+ cells from AML patients; test: CFU-E colony-forming unit assay, AML patients; details: Homo sapiens
Method: (§1) Considering the inhibitory capacity of UCM-13369 on AML cell lines (shown in Figure 3A), the therapeutic potential was assessed in primary CD34+ cells from AML patients. Two ex vivo models were used from AML patients and healthy donors: CD34+ liquid HSC (hematopoietic stem cell) culture as a short-term model and CFU-E (colony-forming unit–erythroid) as a midterm model.
(§2) The test compound was diluted in PBS. […]
Primary cells. 1x10^6/mL total mononuclear bone marrow cells (as source of CD34+ HSCs) of healthy donors and AML patients were used. They were cultured using Stem SpanTM supplement with pencillin/streptomycin (500 U/ml), TPO (10 µg/mL), SCF (10 µg/mL), FLT3 (10 µg/mL), IL-6 (10 µg/mL) and IL-3 (10 µg/mL). After 24 h fresh medium was added. After 72 h in maintenance cells were ready to start the assays. All cells wer e maintained at 37 °C in a humidified incubator in an atmosphere of 5% CO2.
Colonospheres, mamospheres and colony formation unit assays. 30.000 cells per well of MCF-7 cells (mamos pheres), HCT-116 cells (colonospheres) and CD34+ cells from patients (colony formation units) were seeded in serum free non- adherent medium or […]
MethoCult (Stem Cell). […]

NPM1 [2] = test: Western blot of NPM1 in MOLM13 cells; details: MOLM13, 10 µM
Method: (§3) We next studied the impact of UCM-13369 in the genes and/or expression levels of NPM1 and NPM1 C+ pathway components (Figure 4A), including the positive regulation of c-Myc[34] and the negative regulation of FBXW7 and the pro-apoptotic CASP8.[35] […] The inhibition of NPM1 was also observed in MOLM13 cells expressing WT NPM1 (Figure S1B).
1. Figures S1 -S4and T ab les S1 , S2
Figure S1. (A) Dose-response curve of UCM-13369 in MCF-7, HCT-116 and IMR90 […]
(10 µM) in MOLM13 cells at 24 and 48 h. Densitometry values: reduction of 5% and […]
between NSG mice injected with OCI-AML3 cells, with and without UCM-13369 treatment (50 mg/kg). (D) IHC analysis of a poptotic cells in a representative kidney sample from OC I-AML 3 xenograft mice treat ed with DMSO (vehicle, top) vs . UCM-13369 treated mice (50 mg/kg, bottom) mice: H&E ( left) and cleav ed caspase- 3 (right). […]
(§4) Proteomic analysis. A supplementary table (Excel file) includes all the data of the proteomic analysis, showing all the proteins identified, not only those ablated in the treated population, but also those found with different expression levels in both populations under study, and even those that were not detected in the control population but were detected in the treated population. Follows the image of a Venn diagram showing the number of proteins detected in each of the pop ulations and the proteins that converg e […]

NPM1 [3] = test: Western blot of NPM1 in OCI-AML3 cells; details: for Densitometry values for NPM1: reduction: OCI-AML3, 10 μM
Method: as §3
Assay (Bio-Rad Labo rato ries, Hercules, CA, USA) and 20 µg of total protein s was loaded onto 10% SDS-PAGE gels followed by transfer onto a nitrocellulose membrane. Blots were incubated with primary antibodies α-NPM1 (Abcam ), α-M YC (Cel l Signaling), α-FBXW7 ( Abcam) and an ti-mouse or anti-rabbit secondary antibodies (BD). An antibody to β-actin was used to check for equivalent protei n loading. Membranes were developed by enhanced chemiluminescenc e (Clarity Weste rn ECL substrate; Bio-Rad Laboratories ).
Densitometry was performed with Image Lab software, normalized to the signal of β-actin, and r-normalized with the control.
as §4
2.3. NPM1 protein studies
DNA constructs. For recombinant expression, pET28a(+) vectors encoding the native, N-end pentameric domain (residues 1- 130) and the C-end domain (residues 225- 294) constructs of NPM1 –all of which contained a N -terminal 6xHis tag– were available at the lab.4 Site directed mutagenesis was p erfo rmed by polymerase chain reaction (PCR) using the pET28a-NPM1 C-end WT vector to obtain the NPM1 C-end AML mutant construct (NPM1 C-end C+). The following primers were designed: 5’ – […]
(1 picture or pasted object on this page, not shown here)

[4] = tested on: primary HSCs from patients with NPM1 C+ AML; test: CD34+ liquid HSC short-term culture, NPM1 C+ AML patients; details: Homo sapiens, n = 4
Method: as §1, §2
quantitative real-time PCR (qPCR), or were sorted using a FACS BD INFL UX cell sorter (BD Biosciences, Franklin Lakes, NJ, USA). All cells were maintained at 37 °C in a humidified incubator in an atmosphere of 5% CO2, and passaged every 2–3 days. […]
Primary cells. […] After 72 h in maintenance cells were ready to start the assays. […]
Colonospheres, mamospheres and colony formation unit assays. […] After 10 days (mamospheres and colonospheres) and 14 days (CFU-E) we quantified t he number of colonies/spheres and number of cell s (CFU-E) by […]
RNA and DNA extraction and quantitative PCR (qPCR). […] Gene expression was studied from the extracted RNA, processed into cDNA to quantify the expression of NPM1 and c-MYC. […]
The relative amount of targets was determined by the comparative Ct method.
Western blot. […] Lysates wer e cl ear ed by centrifugation (14,000g, 4 °C, 30 min), protein concentration determined by Bradford

COc1ccc(C2Cc3[nH]c4ccccc4c3C(CCNCC3CC3)C2N)cc1 (stereo not shown) [4b, 4-{2-[(Cyclopropylmethyl)amino]ethyl}-2-(4-methoxyphenyl)-2,3,4,9-tetrahydro-1H-carbazol-3-amine]
IC50 [1]: 0.3 µM | Densitometry values (NPM1): reduction (NPM1 [2]; 24 h): 5% | Densitometry values (NPM1): reduction (NPM1 [2]; 48 h): 44% | Densitometry values for NPM1: reduction (NPM1 [3]; 24 h): 50% | Densitometry values for NPM1: reduction (NPM1 [3]; 48 h): 70% | NPM1 levels (in words) (NPM1 [3]; OCI-AML3, qPCR and Western blot): reduced levels | IC50 [4]: 1.73 µM
